ChEMBL document CHEMBL2321705, “Novel diaryl ureas with efficacy in a mouse model of malaria” (Bioorg Med Chem Lett, 2013)
The source made the active and inactive calls. The calls are words filed in the database; no cut-off is given here.

How the values were obtained:
[1] = system: Plasmodium falciparum; test: Antimalarial activity against Plasmodium falciparum Dd2 assessed as inhibition of parasite growth; type: functional, organism-based
[2] = system: Plasmodium falciparum; test: Antimalarial activity against Plasmodium falciparum 3D7 assessed as inhibition of parasite growth; type: functional, organism-based
[3] = system: Plasmodium falciparum; test: Antimalarial activity against Plasmodium falciparum D6 assessed as inhibition of parasite growth; type: functional, organism-based
[4] = Inhibition of Plasmodium falciparum cysteine protease plasmepsin 2
[5] = system: Plasmodium falciparum; test: Antimalarial activity against Plasmodium falciparum W2 assessed as inhibition of parasite growth; type: functional, organism-based
[6] = system: Plasmodium berghei; test: Antimalarial activity against Plasmodium berghei infected CD-1 mouse assessed as survival beyond 8 days at 256 mg/kg, sc bid; type: functional, organism-based; parameters: dose 256 mg/kg
[7] = system: Plasmodium falciparum; test: Antimalarial activity against chloroquine-resistant Plasmodium falciparum Dd2 assessed as growth inhibition; type: functional, organism-based
[8] = system: Plasmodium berghei; test: Antimalarial activity against Plasmodium berghei infected CD-1 mouse assessed as survival beyond 8 days at 128 mg/kg, sc bid; type: functional, organism-based; parameters: dose 128 mg/kg
[9] = system: Plasmodium falciparum; test: Antimalarial activity against Plasmodium falciparum delta pfpm4 assessed as growth inhibition; type: functional, organism-based
[10] = system: Plasmodium berghei; test: Antimalarial activity against Plasmodium berghei infected CD-1 mouse assessed as survival at 128 mg/kg, sc bid measured on day 31; type: functional, organism-based; parameters: dose 128 mg/kg
[11] = system: Plasmodium falciparum; test: Antimalarial activity against Plasmodium falciparum delta pfpm1 assessed as growth inhibition; type: functional, organism-based
[12] = system: Plasmodium falciparum; test: Antimalarial activity against Plasmodium falciparum delta pfpm2 assessed as growth inhibition; type: functional, organism-based
[13] = system: Plasmodium falciparum; test: Antimalarial activity against Plasmodium falciparum delta pfpm3 assessed as growth inhibition; type: functional, organism-based

| SMILES | EC50 [1] | EC50 [2] | further results |
| --- | --- | --- | --- |
| NC(=O)c1cc(Cl)ccc1Oc1ccc(Cl)cc1Cl | 60000 nM | 73000 nM | – |
| COc1ccc(NC(=O)Nc2cc(C(F)(F)F)ccc2Oc2ccc(Cl)cc2Cl)cc1C(F)(F)F | 180 nM | 180 nM | – |
| CN(C(=O)N(C)c1ccc(Cl)c(C(F)(F)F)c1)c1cc(Oc2ccc(Cl)cc2Cl)cc(C(F)(F)F)c1 | 2.4 µg/mL | 1.8 µg/mL | – |
| NCc1cc(Cl)ccc1Oc1ccc(Cl)cc1Cl | 4300 nM | 2300 nM | – |
| O=C(Nc1ccc(Cc2ccccc2)cc1)Nc1cc(C(F)(F)F)ccc1Oc1ccc(Cl)cc1Cl | 0.3 µg/mL | 0.6 µg/mL | – |
| O=C(Nc1cc(C(F)(F)F)ccc1Oc1ccc(Cl)cc1Cl)Nc1cc(C(F)(F)F)ccc1N1CCCCC1 | 2.7 µg/mL | 3.9 µg/mL | – |
| N=C(N)c1ccc(NC(=O)Nc2ccc(Oc3ccccc3)cc2)cc1 | – | – | EC50 [3]: 460 nM; IC50 [4]: 17000 nM; EC50 [5]: 87 nM |
| O=C(Nc1cc(C(F)(F)F)ccc1Oc1ccc(Cl)cc1Cl)Nc1cccc2ccccc12 | 810 nM | 1200 nM | Survival [6]: inactive |
| O=C(Nc1cccnc1)Nc1cc(C(F)(F)F)ccc1Oc1ccc(Cl)cc1Cl | 1 µg/mL | 0.6 µg/mL | – |
| COc1cc(Cl)ccc1Oc1ccc(Cl)cc1Cl | 76000 nM | 100000 nM | – |
| NC(=O)Nc1cc(Cl)ccc1Oc1ccc(Cl)cc1Cl | 18000 nM | 18000 nM | – |
| N#Cc1ccc(NC(=O)Nc2cc(C(F)(F)F)ccc2Oc2ccc(Cl)cc2Cl)cc1C#N | 140 nM | 81 nM | – |
| NC(=O)Nc1ccc(Oc2ccc(Cl)cc2O)c(Cl)c1 | 100000 nM | 100000 nM | – |
| O=C(Nc1ccc2c(c1)OCO2)Nc1cc(C(F)(F)F)ccc1Oc1ccc(Cl)cc1Cl | 1.2 µg/mL | 1.1 µg/mL | – |
| O=C(Nc1ccc2ccccc2c1)Nc1cc(C(F)(F)F)ccc1Oc1ccc(Cl)cc1Cl | 410 nM | 610 nM | Survival [6]: inactive |
| O=S(=O)(Nc1cc(Cl)ccc1Oc1ccc(Cl)cc1Cl)c1ccccc1 | 5100 nM | 4700 nM | – |
| O=C(Nc1ccc(Cl)cc1)Nc1cc(Cl)ccc1Oc1ccc(Cl)cc1Cl | 5000 nM | 2000 nM | Survival [6]: inactive |
| N#Cc1cccc(NC(=O)Nc2cc(C(F)(F)F)ccc2Oc2ccc(Cl)cc2Cl)c1 | 0.14 µg/mL | 0.14 µg/mL | – |
| O=C(O)c1cc(Cl)ccc1Oc1ccc(Cl)cc1Cl | > 150000 nM | > 150000 nM | – |
| O=C(Nc1cccc(Oc2ccccc2)c1)Nc1cc(C(F)(F)F)ccc1Oc1ccc(Cl)cc1Cl | 0.2 µg/mL | 0.3 µg/mL | – |
| O=C(Nc1ccc(Cc2ccccc2)cc1)Nc1ccc(Oc2ccc(Cl)cc2Cl)c(C(F)(F)F)c1 | 1.2 µg/mL | 1.3 µg/mL | – |
| O=C(Nc1ccc(Cl)c(Cl)c1)Nc1cc(Cl)ccc1Oc1ccc(Cl)cc1Cl | 2500 nM | 1900 nM | Survival [6]: inactive |
| O=C(Nc1cccc(Cc2ccccc2)c1)Nc1cc(C(F)(F)F)ccc1Oc1ccc(Cl)cc1Cl | 0.3 µg/mL | 0.3 µg/mL | – |
| O=C(Nc1cc(Cl)cc(Cl)c1)Nc1cc(C(F)(F)F)ccc1Oc1ccc(Cl)cc1Cl | 0.046 µg/mL | 0.047 µg/mL | – |

| SMILES | EC50 [1] | EC50 [2] | further results |
| --- | --- | --- | --- |
| N#Cc1ccc(NC(=O)Nc2cc(C(F)(F)F)ccc2Oc2ccc(Cl)cc2Cl)cc1 | 0.11 µg/mL | 0.14 µg/mL | – |
| O=C(Nc1cc(C(F)(F)F)ccc1Oc1ccc(Cl)cc1Cl)Nc1ccccc1-c1ccccc1 | 0.9 µg/mL | 0.6 µg/mL | – |
| O=C(Nc1ccc(Cl)c(C(F)(F)F)c1)Nc1cc(C(F)(F)F)ccc1Oc1ccc(Cl)cc1Cl | 55 nM | 37 nM | IC50 [7]: 42 nM; IC90 [7]: 83 nM; Survival [8]: Active; IC50 [9]: 66 nM; IC90 [9]: 86 nM; Survival [10]: inactive; IC50 [11]: 70 nM; IC90 [11]: 88 nM; IC50 [12]: 70 nM; IC90 [12]: 88 nM; IC50 [13]: 35 nM; IC90 [13]: 70 nM |
| O=C(Nc1ccc([N+](=O)[O-])c(C(F)(F)F)c1)Nc1cc(C(F)(F)F)ccc1Oc1ccc(Cl)cc1Cl | 72 nM | 72 nM | – |
| N#Cc1ccc(NC(=O)Nc2cc(C(F)(F)F)ccc2Oc2ccc(Cl)cc2Cl)cc1C(F)(F)F | 75 nM | 130 nM | – |
| CN(C)c1ccc(NC(=O)Nc2cc(C(F)(F)F)ccc2Oc2ccc(Cl)cc2Cl)cc1 | 1.8 µg/mL | 1.4 µg/mL | – |
| O=C(Nc1ccc(F)c(C(F)(F)F)c1)Nc1cc(C(F)(F)F)ccc1Oc1ccc(Cl)cc1Cl | 150 nM | 130 nM | – |
| Nc1ccc(NC(=O)Nc2cc(C(F)(F)F)ccc2Oc2ccc(Cl)cc2Cl)cc1C(F)(F)F | 3600 nM | 1500 nM | – |
| O=C(Nc1ccc(Cl)c(Cl)c1)Nc1cc(C(F)(F)F)ccc1Oc1ccc(Cl)cc1Cl | 200 nM | 200 nM | – |
| N#Cc1cc(Cl)ccc1Oc1ccc(Cl)cc1Cl | 43000 nM | 20000 nM | – |
| CC(C)(N)c1cc(Cl)ccc1Oc1ccc(Cl)cc1Cl | 1800 nM | 7200 nM | – |
| Clc1ccc(Oc2ccc(Cl)cc2NCc2ccccc2)c(Cl)c1 | 9400 nM | 9700 nM | – |
| O=C(Nc1cc(C(F)(F)F)cc(C(F)(F)F)c1)Nc1cc(C(F)(F)F)ccc1Oc1ccc(Cl)cc1Cl | 0.044 µg/mL | 0.037 µg/mL | – |
| CS(=O)(=O)Nc1cc(Cl)ccc1Oc1ccc(Cl)cc1Cl | 60000 nM | 38000 nM | – |
| O=C(Nc1cc(C(F)(F)F)ccc1Oc1ccc(Cl)cc1Cl)NC1c2ccccc2-c2ccccc21 | 1.4 µg/mL | 0.8 µg/mL | – |
| CC(=O)Nc1cc(Cl)ccc1Oc1ccc(Cl)cc1Cl | 48000 nM | 33000 nM | – |
| Nc1cc(Cl)ccc1Oc1ccc(Cl)cc1Cl | 55000 nM | 52000 nM | – |
| O=C(Nc1ccccc1)Nc1cc(Cl)ccc1Oc1ccc(Cl)cc1Cl | 1200 nM | 730 nM | – |
| O=C(NCc1ccco1)Nc1cc(C(F)(F)F)ccc1Oc1ccc(Cl)cc1Cl | 2.6 µg/mL | 2.3 µg/mL | – |
| O=C(Nc1ccc(-c2ccccc2)cc1)Nc1cc(C(F)(F)F)ccc1Oc1ccc(Cl)cc1Cl | 0.29 µg/mL | 0.29 µg/mL | – |
| O=C(Nc1cccc(S(=O)(=O)C(F)(F)F)c1)Nc1cc(C(F)(F)F)ccc1Oc1ccc(Cl)cc1Cl | 0.077 µg/mL | 0.077 µg/mL | – |
| O=C(Nc1ccc(Oc2ccc(Cl)cc2Cl)c(C(F)(F)F)c1)Nc1ccccc1Cc1ccccc1 | 0.6 µg/mL | 0.5 µg/mL | – |
| O=C(Nc1ccc(Oc2ccc(Cl)cc2O)c(Cl)c1)N1CCOCC1 | 100000 nM | 100000 nM | – |
